In patent publication US11040028B2, “Penicinotam derivative, preparation method and use thereof” (OCEAN UNIVERSITY OF CHINA, priority 2017, dated 2021):

Tests used:
Assay type in all cases: cell-based
[1] = tested on: human hepatic stellate cells LX-2; experiment: Anti-fibrosis activity test: inhibition of proliferation of human hepatic stellate cells LX-2 (CCK-8); conditions: Homo sapiens, 48 h
Outline: (§1)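 A CCK-8 proliferation assay was run: cells at 2×10^4 cells/mL, adherent for 24 h, then incubated 48 h at 37° C with compound dilutions. A450 was recorded 2 h after CCK-8 addition and converted to percent inhibition versus blank for IC50 determination.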

[2] = tested on: human embryonic lung fibroblast IMR-90; experiment: Anti-fibrosis activity test: inhibition of proliferation of human embryonic lung fibroblast IMR-90 (CCK-8)
Outline: as §1

[3] = tested on: human lung fibroblasts HFL1; experiment: Anti-fibrosis activity test: inhibition of proliferation of human lung fibroblasts HFL1 (CCK-8); conditions: Homo sapiens, HFL1, 48 h
Outline: as §1

[4] = tested on: cardiac fibroblast RAT-iCell-C002; experiment: Anti-fibrosis activity test: inhibition of proliferation of cardiac fibroblast RAT-iCell-C002 (CCK-8); conditions: Cardiac fibroblast, 48 h
Outline: as §1

[5] = tested on: human dermal fibroblasts CCC-ESF-1; experiment: Anti-fibrosis activity test: inhibition of proliferation of human dermal fibroblasts CCC-ESF-1 (CCK-8); conditions: Fibroblast
Outline: as §1

[6] = tested on: human fibrosarcoma cells HT-1080; experiment: Anti-fibrosis activity test: inhibition of proliferation of human fibrosarcoma cells HT-1080 (CCK-8); conditions: Homo sapiens, HT-1080, 48 h
Outline: as §1

BHK-21 cells = experiment: Anti-fibrosis activity test: inhibition of BHK-21 cell proliferation (CCK-8); conditions: Mesocricetus auratus, BHK-21, 48 h
Outline: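 Each concentration was tested in triplicate on adhered BHK-21 cells for 48 h, with pirfenidone as reference. A 2 h CCK-8 incubation preceded absorbance reading at 450 nm, and IC50 was obtained from percent inhibition versus blank.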

[7] = tested on: mouse macrophages (RAW264.7); experiment: Lipopolysaccharide-induced NO secretion in macrophages (Griess); conditions: Mus musculus, RAW264.7, 24 h, RAW264.7, LPS 1 μg/ml, a/b isomers given as first/second symbol, read-out: IC50 (μM), inhibition of lipopolysaccharide-induced NO secretion in macrophages
Outline: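 Absorbance at 548 nm after Griess reagent addition to culture supernatant gave NO content; inhibition rate was derived relative to blank control. Cells were mouse RAW264.7 macrophages exposed to compounds and 1 μg/ml LPS for 24 hours.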

[8] = human hepatic stellate cells LX-2, CCK-8, 48 hours
[9] = human embryonic lung fibroblast IMR-90, CCK-8, 48 hours
[10] = human lung fibroblasts HFL1, CCK-8, 48 hours
[11] = cardiac fibroblast RAT-iCell-C002, CCK-8, 48 hours
[12] = human dermal fibroblasts CCC-ESF-1, CCK-8, 48 hours
[13] = human fibrosarcoma cells HT-1080, CCK-8, 48 hours
[14] = CCK-8, 48 hours after administration
[15] = Homo sapiens, IMR-90 cells, 48 h, CCK-8
[16] = Homo sapiens, CCC-ESF-1 cells, 48 h, CCK-8

SMILES	IC50 [1, 8]	IC50 [2, 9]	IC50 [3, 10]	IC50 [4, 11]	IC50 [5, 12]	IC50 [6, 13]	IC50 (BHK-21 cells; [14])	IC50 [7]	IC50 ([1]; LX-2, 48 h, LX-2 cells, CCK-8)	IC50 [2, 15]	IC50 ([3]; HFL1 cells, 48 h, CCK-8)	IC50 ([4]; RAT-iCell-C002 cells, CCK-8)	IC50 [5, 16]	IC50 ([6]; HT-1080 cells, 48 h, CCK-8)	IC50 (BHK-21 cells; 48 h, CCK-8)
O=C(Oc1c2c(nc3cc(N4CCNCC4)c(F)cc13)-c1cccn1C2=O)c1ccco1 [Compound 343b, 7-fluoro-10-oxo-6-(piperazin-1-yl)-10H-pyrrolizino[1,2-b]quinolin-9-ylfuran-2-carboxylate]	0.05 to 5 mM	0.05 to 5 mM	0.05 to 5 mM	0.05 to 5 mM	0.05 to 5 mM	0.05 to 5 mM	0.05 to 5 mM	1 to 10 µM							
O=C1c2c(nc3cccc(O)c3c2O)-c2cccn21 [Compound 470b, 8,9-dihydroxy-10H-pyrrolizino[1,2-b]quinolin-10-one]	0.05 to 5 mM	0.05 to 5 mM	0.05 to 5 mM	0.05 to 5 mM	0.05 to 5 mM	0.05 to 5 mM	0.05 to 5 mM	1 to 10 µM							
O=C1c2nc3ccccc3c(OCc3ccc(-c4ccccc4)cc3)c2-c2cccn21 [Compound 796b, 11-([1,1′-biphenyl]-4-ylmethoxy)-5H-pyrrolizino[2,1-b]quinolin-5-one]								1 to 10 µM	0.05 to 5 mM	0.05 to 5 mM	0.05 to 5 mM	0.05 to 5 mM	0.05 to 5 mM	0.05 to 5 mM	0.05 to 5 mM
O=C1c2c(nc3cc(Cl)ccc3c2OCc2ccc(F)cc2)-c2cccn21 [Compound 502b, 6-chloro-9-((4-fluorobenzyl)oxy)-10H-pyrrolizino[1,2-b]quinolin-10-one]	0.05 to 5 mM	0.05 to 5 mM	0.05 to 5 mM	0.05 to 5 mM	0.05 to 5 mM	0.05 to 5 mM	0.05 to 5 mM	1 to 10 µM							
O=C1c2c(n(Cc3ccccc3F)c3c(Cl)cccc3c2=O)-c2cccn21 [Compound 460a, 5-Chloro-4-(2-fluorobenzyl)-9H-pyrrolizino[1,2-b]quinoline-9,10(4H)-dione]	0.05 to 5 mM	0.05 to 5 mM	< 0.05 mM	0.05 to 5 mM	0.05 to 5 mM	0.05 to 5 mM	< 0.05 mM	0.1 to 1 µM							
CCCOCCOc1c2c(nc3ccccc13)C(=O)n1cccc1-2 [Compound 790b, 11-(2-propoxyethoxy)-5H-pyrrolizino[2,1-b]quinolin-5-one]								1 to 10 µM	0.05 to 5 mM	0.05 to 5 mM	0.05 to 5 mM	0.05 to 5 mM	0.05 to 5 mM	0.05 to 5 mM	0.05 to 5 mM
CC(C)=CCn1c2c(c(=O)c3cc(F)c(N4CCNCC4)cc31)C(=O)n1cccc1-2 [Compound 354a, 7-Fluoro-4-(3-methylbut-2-en-1-yl)-6-(piperazin-1-yl)-9H-pyrrolizino[1,2-b]quinoline-9,10(4H)-dione]	5 to 20 mM	0.05 to 5 mM	0.05 to 5 mM	< 0.05 mM	0.05 to 5 mM	0.05 to 5 mM	0.05 to 5 mM	1 to 10 µM							
O=C1c2c(nc3cccc(Cl)c3c2OCc2ccc(F)cc2)-c2cccn21 [Compound 474b, 8-chloro-9-((4-fluorobenzyl)oxy)-10H-pyrrolizino[1,2-b]quinolin-10-one]	0.05 to 5 mM	0.05 to 5 mM	0.05 to 5 mM	5 to 20 mM	0.05 to 5 mM	0.05 to 5 mM	0.05 to 5 mM	1 to 10 µM							
O=C1c2nc3ccccc3c(OCCCCN3CCOCC3)c2-c2cccn21 [Compound 789b, 11-(4-morpholinobutoxy)-5H-pyrrolizino[2,1-b]quinolin-5-one]								1 to 10 µM	0.05 to 5 mM	0.05 to 5 mM	0.05 to 5 mM	0.05 to 5 mM	0.05 to 5 mM	0.05 to 5 mM	0.05 to 5 mM
O=C1c2c(nc3c(C(F)(F)F)cccc3c2OCc2ccc(Cl)cc2)-c2cccn21 [Compound 450b, 9-((4-chlorobenzyl)oxy)-5-(trifluoromethyl)-10H-pyrrolizino[1,2-b]quinolin-10-one]	0.05 to 5 mM	0.05 to 5 mM	0.05 to 5 mM	0.05 to 5 mM	0.05 to 5 mM	5 to 20 mM	0.05 to 5 mM	1 to 10 µM							
O=C1c2c(n(Cc3cccc(F)c3)c3cc(F)ccc3c2=O)-c2cccn21 [Compound 491a, 6-Fluoro-4-(3-fluorobenzyl)-9H-pyrrolizino[1,2-b]quinoline-9,10(4H)-dione]	0.05 to 5 mM	0.05 to 5 mM	0.05 to 5 mM	0.05 to 5 mM	0.05 to 5 mM	0.05 to 5 mM	< 0.05 mM	10 to 50 µM							
O=C1c2cc(F)ccc2N(c2ccc(Cl)cc2)C2c3cccn3C(=O)C12 (centres unmarked) [Compound 133a, 4-(4-Chlorophenyl)-7-fluoro-3b,9a-dihydro-9H-pyrrolizino[1,2-b]quinoline-9,10(4H)-dione]	0.05 to 5 mM	5 to 20 mM	0.05 to 5 mM	0.05 to 5 mM	0.05 to 5 mM	0.05 to 5 mM	0.05 to 5 mM	10 to 50 µM							
O=C1c2c(nc3ccc(F)cc3c2O)-c2cccn21 [Compound 156b, 7-fluoro-9-hydroxy-10H-pyrrolizino[1,2-b]quinolin-10-one]	0.05 to 5 mM	0.05 to 5 mM	< 0.05 mM	0.05 to 5 mM	0.05 to 5 mM	0.05 to 5 mM	0.05 to 5 mM	0.1 to 1 µM							
N#Cc1cccc2c(OCc3ccccc3F)c3c(nc12)-c1cccn1C3=O [Compound 456b, 9-((2-fluorobenzyl)oxy)-10-oxo-10H-pyrrolizino[1,2-b]quinoline-5-carbonitrile]	0.05 to 5 mM	0.05 to 5 mM	0.05 to 5 mM	0.05 to 5 mM	0.05 to 5 mM	0.05 to 5 mM	0.05 to 5 mM	1 to 10 µM							
O=C1c2nc3ccccc3c(OCCCCN3CCCCC3)c2-c2cccn21 [Compound 788b, 11-(4-(piperidin-1-yl)butoxy)-5H-pyrrolizino[2,1-b]quinolin-5-one]								1 to 10 µM	0.05 to 5 mM	0.05 to 5 mM	0.05 to 5 mM	0.05 to 5 mM	0.05 to 5 mM	0.05 to 5 mM	0.05 to 5 mM
O=C1c2c(n(Cc3cccc(Cl)c3)c3c(Cl)cccc3c2=O)-c2cccn21 [Compound 459a, 5-Chloro-4-(3-chlorobenzyl)-9H-pyrrolizino[1,2-b]quinoline-9,10(4H)-dione]	0.05 to 5 mM	0.05 to 5 mM	0.05 to 5 mM	0.05 to 5 mM	0.05 to 5 mM	5 to 20 mM	0.05 to 5 mM	1 to 10 µM							
O=C1c2c(nc3cccc(F)c3c2O)-c2cccn21 [Compound 467b, 8-fluoro-9-hydroxy-10H-pyrrolizino[1,2-b]quinolin-10-one]	0.05 to 5 mM	0.05 to 5 mM	0.05 to 5 mM	0.05 to 5 mM	0.05 to 5 mM	0.05 to 5 mM	0.05 to 5 mM	1 to 10 µM							
N#Cc1cccc2c(=O)c3c(n(Cc4ccc(F)cc4)c12)-c1cccn1C3=O [Compound 449a, 4-(4-Fluorobenzyl)-9,10-dioxo-4,10-dihydro-9H-pyrrolizino[1,2-b]quinoline-5-carbonitrile]	0.05 to 5 mM	0.05 to 5 mM	0.05 to 5 mM	0.05 to 5 mM	0.05 to 5 mM	0.05 to 5 mM	0.05 to 5 mM	1 to 10 µM							
O=C1c2c(nc3c(F)c(N4CCNCC4)ccc3c2OCc2ccc(F)cc2)-c2cccn21 [Compound 485b, 5-fluoro-9-((4-fluorobenzyl)oxy)-6-(piperazin-1-yl)-10H-pyrrolizino[1,2-b]quinolin-10-one]	0.05 to 5 mM	0.05 to 5 mM	0.05 to 5 mM	0.05 to 5 mM	0.05 to 5 mM	0.05 to 5 mM	0.05 to 5 mM	1 to 10 µM							
